We go through three molecules from patent US7196105B2, “Treatment of human multiple myeloma by curcumin” (Research Development Foundation, priority 2002, dated 2007).

In test [1] the test system is U266 cells. Description: Cytotoxic effect of vincristine with or without curcumin (MTT). In kind it is cell-based, human. As to conditions: vincristine 50 μM alone, 24 h. As to the method:
The antiproliferative effects of curcumin against different multiple myeloma cell lines were determined by the MTT dye uptake method as described earlier (Manna et al., 1998). Briefly, cells (5000/well) were incubated in triplicate in a 96-well plate in the presence or absence of indicated test samples in a final volume of 0.1 ml for 24 h at 37° C. Thereafter, 0.025 ml of MTT solution (5 mg/ml in PBS) was added to each well. After a 2 h incubation at 37 ° C., 0.1 ml of extraction buffer (20% SDS, 50% dimethylformamide) was added. Incubation was continued for overnight at 37 ° C., and then the OD at 590 nm was measured using a 96-well multiscanner autoreader (Dynatech MR 5000), with extraction buffer as blank. Percent cell viability=(OD of the experiment samples/OD of the control)×100.

Test [2] deals with p65 subunit of NF-κB. Description: Immunocytochemistry for NF-κB p65 localization in multiple myeloma cell lines. It is filed as cell-based, human. The conditions noted are these: U266 cells, NBD-peptide 100 μM, 12 h. As to the method:
Red stain indicates the localization of p65 and blue stain (Hoechst) indicates nucleus (magnification 200×). […] U266 cells (2×10^6 cells/ml) were treated with indicated concentrations of NEMO-control or NBD-peptide (100 μM) for the indicated times. Nuclear extracts were then checked for the presence of NF-κB DNA-binding activity by EMSA. […] Untreated or NBD-peptide-treated (100 μM; 12 h) U266 cells were cytospun, and p65 immunocytochemistry was performed as described. Red stain indicates the localization of p65 and blue stain indicates nucleus (magnification 200×). […] U266 cells (2×10^6 cells/ml) were treated with indicated concentrations of NEMO-control or NBD-peptide (100 μM) for the indicated time periods, and cell viability was monitored by the trypan blue dye exclusion method. Percent cell killing was determined as: (number of trypan blue stained cells/total cells)×100. […] Stained slides were mounted with mounting medium (Sigma Colo.) and analyzed under an epifluorescence microscope (Labophot-2, Nikon, Tokyo, Japan). […] Cells with nuclear staining of NF-κB p65 or STAT3 were counted separately. One hundred cells were counted for each specimen, and the sample was graded on the basis of a 4-point scale: −, no nuclear positive cells (0%); +, low number of nuclear positive cells (<10%); ++, moderate number of nuclear positive cells (10–50%); +++, high number of nuclear positive cells (>50%).

Test [3] deals with U266 cells. Description: Cell viability by trypan blue dye exclusion after NBD peptide treatment. As to conditions: NBD peptide 100 μM, 24 h. It is filed as cell-based, human. The protocol:
FIG. 8A: U266 cells (2×10^6 cells/ml) were treated with indicated concentrations of NEMO-control or NBD-peptide (100 μM) for the indicated times. Nuclear extracts were then checked for the presence of NF-κB DNA-binding activity by EMSA. FIG. 8B: Untreated or NBD-peptide-treated (100 μM; 12 h) U266 cells were cytospun, and p65 immunocytochemistry was performed as described. Red stain indicates the localization of p65 and blue stain indicates nucleus (magnification 200×). FIG. 8C: U266 cells (2×10^6 cells/ml) were treated with indicated concentrations of NEMO-control or NBD-peptide (100 μM) for the indicated time periods, and cell viability was monitored by the trypan blue dye exclusion method. Percent cell killing was determined as: (number of trypan blue stained cells/total cells)×100.

Test [4] deals with multiple myeloma cell lines MM.1S, RPMI-8226 and U266. The conditions noted are these: 50 μM PS-1145; cited from earlier work.

Take `CC[C@]1(O)C[C@H]2CN(CCc3c([nH]c4ccccc34)[C@@](C(=O)OC)(c3cc4c(cc3OC)N(C=O)[C@H]3[C@@](O)(C(=O)OC)[C@H](OC(C)=O)[C@]5(CC)C=CCN6CC[C@]43[C@@H]65)C2)C1` [vincristine, reference compound]: the “killing of U266 cells” value in test [1] is “minimally effective”.
Regarding “NH2-DRQIKIWFQNRRMKWKKTALDWSWLQTE-CONH2 (H-DRQIKIWFQNRRMKWKKTALDWSWLQTE-NH2) [NBD peptide, reference compound]”, in test [2], the “nuclear pool of the p65 subunit of NF-κB” value was “decrease in the nuclear pool of the p65 subunit of NF-κB”. Besides, the “suppression of cell growth” value in test [3] is on record as “Approximately 32%”.
In the case of `O=C(Nc1cc(Cl)cc2c1[nH]c1cnccc12)c1cccnc1` [PS-1145], the inhibition of proliferation result in test [4] is “less than 50%”.
